# Reference: patent US8557225B2, “Solution and method for cleaning tooth enamel” (priority 2008, dated 2013)
# Tests used:
# [1] = citric acid solution applied over the enamel; type: in vivo; settings: 6% citric acid in the improved solution, over the teeth enamel
# Text: Citric acid as incorporated in the present disclosure is an irrigating substance classified as a chelating agent which, due to its low pH, reacts with the metallic ions in the hydroxyapatite crystals in order to produce a metallic chelating agent which reacts with the chelating agent's terminal groups when removing calcium ions of the dentine, forming a ring. The dentine softens changing the solubility and permeability aspects of the tissue, especially the peritubular dentine, rich in hydroxyapatite, increasing the diameter of the exposed dental tubes. These chelating agent properties also provide a great affinity as thus used due to ferrous alkali characteristics of the dental structure. Also, this chelating agent is naturally found inside the body, thus making it biologically more acceptable than other acids. Citric acid is effective in altering the hydroxyapatite solubility; it has been used in several concentrations, from 0.6 up to 50% by weight. Its effect is very fast and it only requires five seconds to apply a 6% solution over the enamel to remove the undesired dental covering.
# This action is favorably strengthened when citric acid (C6O7H8) is included in the composition at the approximate 6% (weight percent) level. (Tables 1 and 2). […]
# [2] = 6% solution applied over the enamel; cited from earlier work
compound,measurement,setting,value
"O=C(O)CC(O)(CC(=O)O)C(=O)O [Citric acid, citric acid]",time required after applying for dissolving the organic matter,[1],thirty seconds
same,time required to remove the undesired dental covering,[2],five seconds
